Test results taken from US20090203753A1, “7-(2-amino-1-hydroxy-ethyl)-4-hydroxybenzothiazol-2(3H)-one-derivatives as beta2 adrenoreceptor agonists” (AstraZeneca AB, priority 2005, published 2009).

Target: T1, recombinant human α1D receptor (Homo sapiens, UniProt P25100)
T1 construct: expressed in transfected cells; host or cells: HEK293
T1 sequence (P25100 1-572): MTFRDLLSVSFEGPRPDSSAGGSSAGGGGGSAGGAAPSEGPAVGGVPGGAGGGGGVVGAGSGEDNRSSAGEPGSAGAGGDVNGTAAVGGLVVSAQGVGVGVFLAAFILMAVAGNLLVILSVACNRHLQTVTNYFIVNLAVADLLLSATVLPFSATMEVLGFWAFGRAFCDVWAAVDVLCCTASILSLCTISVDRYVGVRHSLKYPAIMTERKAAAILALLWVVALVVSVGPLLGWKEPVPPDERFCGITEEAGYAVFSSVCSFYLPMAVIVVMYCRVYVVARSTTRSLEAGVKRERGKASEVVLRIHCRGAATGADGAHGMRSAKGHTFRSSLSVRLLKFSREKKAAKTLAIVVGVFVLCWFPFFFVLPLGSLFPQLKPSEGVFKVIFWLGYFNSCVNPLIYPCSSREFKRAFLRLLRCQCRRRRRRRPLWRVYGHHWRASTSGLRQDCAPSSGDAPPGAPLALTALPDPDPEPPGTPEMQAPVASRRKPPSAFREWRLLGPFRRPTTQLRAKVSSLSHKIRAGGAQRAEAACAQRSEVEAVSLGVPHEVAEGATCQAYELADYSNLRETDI
Assay: Adrenergic α1D selectivity assay, [3H]-prazosin binding to HEK293 membranes
Settings: read-out: α1 bind pIC50 (converted)
Experimental: Membranes were prepared from human embryonic kidney 293 (HEK293) cells expressing recombinant human α1D receptor. These were diluted in Assay Buffer (50 mM HEPES, 1 mM EDTA, 0.1% gelatin, pH 7.4) to provide a final concentration of membranes that gave a clear window between maximum and minimum specific binding.
Assays were performed in U-bottomed 96-well polypropylene plates. 10 μL [^3H]-prazosin (0.3 nM final concentration) and 10 μL of test compound (10× final concentration) were added to each test well. For each assay plate 8 replicates were obtained for [^3H]-prazosin binding in the presence of 10 μL vehicle (10% (v/v) DMSO in Assay Buffer; defining maximum binding) or 10 μL BMY7378 (10 μM final concentration; defining non-specific binding (NSB)). Membranes were then added to achieve a final volume of 100 μL. The plates were incubated for 2 hours at room temperature and then filtered onto PEI coated GF/B filter plates, pre-soaked for 1 hour in Assay Buffer, using a 96-well plate Tomtec cell harvester. Five washes with 250 μL wash buffer (50 mM HEPES, 1 mM EDTA, pH 7.4) were performed at 4° C. to remove unbound radioactivity. The plates were dried then sealed from underneath using Packard plate sealers and MicroScint-O (50 μL) was added to each well. The plates were sealed (TopSeal A) and filter-bound radioactivity was measured with a scintillation counter (TopCount, Packard BioScience) using a 3-minute counting protocol.
Total specific binding (B0) was determined by subtracting the mean NSB from the mean maximum binding. NSB values were also subtracted from values from all other wells.

**Q.** For `CCN(CC)CCN(CCNC[C@H](O)c1ccc(O)c2[nH]c(=O)sc12)C(=O)CCOCCc1ccccc1` [Example 7, N-[2-(Diethylamino)ethyl]-N-(2-{[(2R)-2-hydroxy-2-(4-hydroxy-2-oxo-2,3-dihydro-1,3-benzothiazol-7-yl)ethyl]amino}ethyl)-3-(2-phenylethoxy)propanamide], which IC50 is on record?
**A.** The IC50 was 5.01 µM.
